We go through three molecules from patent publication US6110494A, “Cisapride mini-tablet formulations” (Elan Corporation, plc, priority 1997, dated 2000).

The conditions of data set [1]: extended release, viscous hydrophilic polymers; cited from earlier work.
For data set [2] the following is noted: cited from earlier work.
Data set [3] in a line: Solubility of cisapride and its salt.

The structures appear in SMILES notation.

Consider `COc1cc(N)c(Cl)cc1C(=O)NC1CCN(CCCOc2ccc(F)cc2)CC1OC.O=C(O)C(O)C(O)C(=O)O` (single isomer, unassigned; (+)) [(+)-cisapride-(L) tartrate], for which, in data set [1], the dissolution rates result is listed as “equal dissolution rates”.
As for `COc1cc(N)c(Cl)cc1C(=O)NC1CCN(CCCOc2ccc(F)cc2)CC1OC` (stereo not drawn) [Cisapride], in data set [2] (food), the “effect of food on absorption” value is given as “enhancing effect on the absorption”. For the same molecule, the half life result in data set [2] (in vivo) is “relatively short half life”. For the same molecule, in data set [2] (more distal regions), the “absorption in distal regions of the gastrointestinal tract” value was “significant decrease in absorption”. Moreover, the “solubilisation at pH 6.8” value in data set [3] is listed as “SLS (sodium lauryl sulphate) was required to solubilise”.
On to `COc1cc(N)c(Cl)cc1C(=O)NC1CCN(CCCOc2ccc(F)cc2)CC1OC` (single isomer, unassigned; (-)) [(-)-cisapride-(L)tartrate], for which, in data set [1], the dissolution rates result is “equal dissolution rates”.
